Measured values from patent publication US20210251228A1, “METHODS FOR REPELLING DROSOPHILA SPECIES USING 2-PENTYLFURAN” (The United States of America, as represented by the …, priority 2020, published 2021).
Where a name gives a salt, the structure may show the parent alone.

Legend:
[1] = tested on: Drosophila suzukii antennae; experiment: Coupled GC-EAD of bread dough headspace volatiles on SWD antennae; settings: adult female SWD antennae; adsorbent extract of bread dough; authentic standards 10 ng/μl
Description: Adsorbent Sampling from Bread Dough: The bread dough bait consisted of whole-wheat flour (17.25 g), sugar (2 g), dry active bread yeast (0.325 g), apple cider vinegar (1 ml), and water (25 ml) (Cha, D. H., et al., J. Econ. Entomol., 111: 645-652 (2018a)). Headspace volatiles were collected from 10 g bread dough ball placed in a screened specimen cup (130 ml) by using 2.41 closed volatile collection chambers (ARS, Inc., Gainesville, Fla.) with one air inlet adapter (7 mm ID) on the top and an outlet adapter (7 mm ID) on the bottom wall. Clean air from a filtering and delivery system (ARS Inc., Gainesville, Fla.) was pushed into the chamber at 0.7 L/min through the top inlet port, and volatiles from the dough were pushed out through volatile traps (activated charcoal adsorbent filters, ORBO™32-small, Supelco Inc., Bellefonte, Pa.) on the bottom of the chamber. An additional ORBO™ filter was used to ensure that no breakthrough occurred. For each sample of dough (2 dough samples total), adsorbent collections were made over a 2-day period at room temperature using the same volatile trap. Volatiles were eluted with 600 μl methylene chloride every 24 h from the filters of a given dough sample and combined across the total of the collecting days (from 2 dough samples). The combined extract was kept at −20° C. and subjected to as chromatography-electroantennographic detection (GC-EAD) and gas chromatography-mass spectrometry (GC-MS) analyses.
Coupled Gas Chromatographic-Electroantennographic Detection (GC-EAD): Coupled GC-EAD analysis was performed as described previously (Cha, D. H., J. Chem. Ecol., 34: 1180-1189 (2008); Cha, D. H., et al., J. Chem. Ecol., 38: 1419-1431 (2012)) using a Hewlett Packard 5890 Series II gas chromatograph equipped with either a non-polar DB-5 ms capillary column (30 m×0.25 mm ID, 0.25 μm film thickness; Agilent Technologies, Wilmington, Del.) or polar DB-WAXetr capillary column (30 m×0.25 mm ID, 0.25 μm film thickness; Agilent Technologies, Wilmington, Del.) in the splitless mode with 1 min sampling time. The oven temperature was programmed at 40° C. for 5 min, then increased by 15° C./min to 250° C., and held for 5 min. Injector and detector temperatures were set at 250° C. Nitrogen gas was the carrier at a flow of 2 ml/min. The column effluent was split 1:1 in the oven via a “Y” glass splitter (Supelco). One arm of the splitter led to the flame ionization detector (FID) (250° C.) and the other to the heated EAD port (250° C.). Whole head preparations were made of individual flies, age 5-9 day, for GC-EAD analysis (Cha et al. 2012). The head was separated from the body and its antennae positioned between two gold wire electrodes immersed in saline filled (Drosophila ringer solution; 46 mmol NaCl, 182 mmol KCl, 3 mmol CaCl2, and 10 mmol Tris HCl at pH 7.2) micropipettes in an acrylic holder. The antennal holder was placed inside a humidified condenser and maintained at 5° C. The output signal from the antenna was amplified by a customized high input impedance DC amplifier and recorded on an HP 3390A integrator.
Chemical Analysis: GC-MS was carried out with an Agilent 5975MS coupled with a Agilent 6890GC equipped with either a DB-5 ms capillary column (30 m×0.25 mm ID, 0.25 μm film thickness; Agilent Technologies, Wilmington, Del.) or DB-WAXetr capillary column (30 m×0.25 mm ID, 0.25 μm film thickness; Agilent Technologies, Wilmington, Del.). Helium was the carrier gas (1.0 ml/min constant flow). The GC temperature program was the same as used for the GC-EAD analyses. The MS transfer-line was held at 260° C., the MS source at 230° C., and the MS quad at 150° C. Mass spectra were taken in EI mode (at 70 eV) in the range from 40 m/z to 350 m/z with a scanning rate of 4.58 scan/s. GC-MS data were processed with the MDS-Chemstation software (Agilent Technologies). […]

[2] = tested on: SWD; settings: 1-octen-3-ol released near ripe raspberries; cited from earlier work

Row | SMILES | GC-EAD activity (antennal response) [1] | effect on infestation of ripe raspberries by SWD [2]
1 | CCCCCCCO [1-heptanol] | active | 
2 | CCCCCCO [1-hexanol] | active | 
3 | C=CC(O)CCCCC (stereo not drawn) [1-octen-3-ol, reference compound] | active | significantly reduced infestation
4 | CCCCCO [1-pentanol] | active | 
5 | CC(O)C(C)O (stereo not drawn) [2,3-butanediol] | active | 
6 | CCC(C)COC(C)=O (stereo not drawn) [2-methylbutyl acetate] | active | 
7 | CCCCCCCC(C)=O [2-nonanone] | active | 
8 | OCCc1ccccc1 [2-phenylethanol] | active | 
9 | CC(=O)C(C)O (stereo not drawn) [acetoin] | active | 
10 | CCCCCCCC(=O)OCC [ethyl octanoate] | active | 
11 | CC(=O)OCCC(C)C [isoamyl acetate] | active | 
12 | CC(C)CCOC=O [isoamyl formate] | active | 
13 | CCCCCCCCC=O [nonanal] | active | 
14 | CCCCCOC(C)=O [pentyl acetate] | active | 
